≈ marks a conversion by molar mass, not a printed value. Read-outs that look alike come from different tables or passages of the source.
Test system: Atopobium vaginae
Assay: MIC determination on Brucella agar, susceptibility of Atopobium vaginae strains
Assay type: cell-based
Conditions: for MIC: Fannyhessea vaginae
[1] = all tested strains of Atopobium vaginae

MIC (CCUG43049, Atopobium vaginae strain CCUG 43049, Brucella agar, anaerobic, read-out: MIC) [µg/mL] | MIC (CCUG44061, Atopobium vaginae strain CCUG 44061, Brucella agar, anaerobic, read-out: MIC) [µg/mL] | MIC (CCUG44116, Atopobium vaginae strain CCUG 44116, Brucella agar, anaerobic, read-out: MIC) [µg/mL] | MIC (CCUG44125, Atopobium vaginae strain CCUG 44125, Brucella agar, anaerobic, read-out: MIC) [µg/mL] | MIC (CCUG44156, Atopobium vaginae strain CCUG 44156, Brucella agar, anaerobic, read-out: MIC) [µg/mL] | MIC (CCUG44258, Atopobium vaginae strain CCUG 44258, Brucella agar, anaerobic, read-out: MIC) [µg/mL] | MIC (CCUG48515, Atopobium vaginae strain CCUG 48515, Brucella agar, anaerobic, read-out: MIC) [µg/mL] | MICs (range over all strains) [1] [µg/mL] | Structure (SMILES) | susceptibility of Atopobium to the agent (conclusion from MIC) [1] | MIC [µg/mL] | MIC (CCUG42099) [µg/mL] | MIC (CCUG43049) [µg/mL] | MIC (CCUG44061) [µg/mL] | MIC (CCUG44116) [µg/mL] | MIC (CCUG44125) [µg/mL] | MIC (CCUG44156) [µg/mL] | MIC (CCUG44258) [µg/mL] | MIC (CCUG48515) [µg/mL]
16 (≈ 93.5 µM) | 64 (≈ 374 µM) | 32 (≈ 187 µM) | 16 (≈ 93.5 µM) | 8 (≈ 46.7 µM) | 32 (≈ 187 µM) | 32 (≈ 187 µM) | 8 to 256 | Cc1ncc([N+](=O)[O-])n1CCO [Metronidazole, metronidazole] | resistant |  |  |  |  |  |  |  |  | 
 |  |  |  |  |  |  |  | CSCC1CN(/N=C/c2ccc([N+](=O)[O-])o2)C(=O)O1 (stereo not shown) [Nifuratel, nifuratel] | sensitive | 1 (≈ 3.51 µM) | 0.5 (≈ 1.75 µM) | 0.25 (≈ 0.876 µM) | 1 (≈ 3.51 µM) | 0.5 (≈ 1.75 µM) | 0.25 (≈ 0.876 µM) | 0.125 (≈ 0.438 µM) | 0.5 (≈ 1.75 µM) | 0.5 (≈ 1.75 µM)
